Assay [1] can be described thus: Inhibition of porcine succinate-cytochrome c reductase using succinate and cytochrome c as substrates by spectrophotometric based assay. Set-up: species or system Sus scrofa.
Assay [2] is filed under the species Sus scrofa. Kind of assay: Inhibition of porcine heart succinate-cytochrome c reductase at 10 uM using succinate and cytochrome c as substrates by spectrophotometric based assay relative to control.
The nature of assay [3]: Inhibition of porcine cytochrome b-c1 complex using DBH2 and cytochrome c as substrates by spectrophotometric based assay. Set-up: species or system Sus scrofa.
A short description of assay [4]: Inhibition of porcine succinate-ubiquinone oxidoreductase using succinate and 2,6-dichloroindophenol as substrates by spectrophotometric based assay. Set-up: species or system Sus scrofa.
The species named for assay [5] is Sus scrofa. Kind of assay: Inhibition of porcine cytochrome b-c1 complex at 10 uM using DBH2 and cytochrome c as substrates by spectrophotometric based assay relative to control.
The species entered for assay [6] is Sus scrofa. Kind of assay: Inhibition of porcine succinate-ubiquinone oxidoreductase at 10 uM using succinate and 2,6-dichloroindophenol as substrates by spectrophotometric based assay relative to control.

`O=S(=O)(Nc1cc(Cl)c(Oc2c(Cl)cc(Cl)cc2Cl)c(Cl)c1)c1ccc(C(F)(F)F)cc1Cl`: in assay [1], the IC50 is 1080 nM.

Compound `O=S(=O)(Nc1ccc(Oc2ccc(Cl)cc2Cl)c(Cl)c1)c1ccccc1` had an IC50 in assay [1] of 1980 nM.

In assay [1], `O=S(=O)(Nc1cc(Cl)c(Oc2c(Cl)cc(Cl)cc2Cl)c(Cl)c1)c1ccc(F)cc1` returned an IC50 of 830 nM. This IC50 is about 2.4-fold lower than that of the compound before.

As for `O=S(=O)(Nc1ccc(Oc2ccc3ccccc3c2)c(Cl)c1)c1ccccc1`, the inhibition in assay [2] was determined as 47%. Besides, the IC50 in assay [1] was greater than 10000 nM.

For the compound `O=S(=O)(Nc1cc(Cl)c(Oc2c(Cl)cc(Cl)cc2Cl)c(Cl)c1)c1ccccc1`, the 50% inhibitory concentration (IC50) in assay [3] came out at 3060 nM; in assay [1], 80 nM; in assay [4], 510 nM.

`O=S(=O)(Nc1ccc(Oc2ccc(Cl)cc2Cl)cc1)c1ccc(C(F)(F)F)cc1Cl`: inhibition in assay [1] was half-maximal at 1370 nM (IC50).

Take `O=S(=O)(Nc1cc(Cl)c(Oc2ncc(C(F)(F)F)cc2Cl)c(Cl)c1)c1ccccc1`: in assay [2], the inhibition amounted to 9%. Further, the IC50 in assay [1] was greater than 10000 nM.

`O=[N+]([O-])c1ccc(S(=O)(=O)Nc2cc(Cl)c(Oc3ccc(Cl)cc3Cl)c(Cl)c2)cc1` gave an IC50 in assay [1] of 3570 nM.

For the compound `O=S(=O)(Nc1cc(Cl)c(Oc2c(Cl)cc(Cl)cc2Cl)c(Cl)c1)c1c(Cl)cc(Cl)cc1Cl`, inhibition in assay [1] was half-maximal at 220 nM (IC50).

In turn, `Cc1cc(C)c(Oc2c(C)cc(NS(=O)(=O)c3ccccc3)cc2C)c(C)c1` displayed an inhibition in assay [2] of 3%. This compound registered an IC50 in assay [1] greater than 10000 nM.

Compound `Cc1ccc(S(=O)(=O)Nc2cc(Cl)c(Oc3c(Cl)cc(Cl)cc3Cl)c(Cl)c2)cc1` displayed an IC50 in assay [1] of 1660 nM.

Take `O=S(=O)(Nc1cc(F)c(Oc2c(F)cc(F)cc2F)c(F)c1)c1ccccc1`: the IC50 in assay [1] worked out at 6440 nM; in assay [4] it was 2020 nM. Further, the inhibition in assay [5] came out at 40%.

Compound `O=S(=O)(Nc1ccc(Oc2ccc(Cl)cc2Cl)cc1)c1c(Cl)cc(Cl)cc1Cl` returned an IC50 in assay [1] of 1490 nM.

As to `O=S(=O)(Nc1ccc(Oc2ccc(Cl)cc2Cl)c(Cl)c1)c1c(Cl)cc(Cl)cc1Cl`, in assay [1], the IC50 is 1330 nM.

In turn, `O=S(=O)(Nc1cc(Cl)c(Oc2ccc(Cl)cc2Cl)c(Cl)c1)c1ccc(Cl)cc1Cl` had an IC50 in assay [1] of 1380 nM.

With `O=S(=O)(Nc1ccc(Oc2c(Cl)cc(Cl)cc2Cl)c(Cl)c1)c1ccccc1`, the inhibition in assay [2] is 47%. The compound also gave an IC50 in assay [1] greater than 10000 nM.

Compound `O=S(=O)(Nc1ccc(Oc2ccc(Cl)cc2Cl)c(Cl)c1)c1ccc(Cl)cc1Cl` came in with an IC50 in assay [1] of 1300 nM. This lies in the single-digit micromolar range.

Compound `Cc1cccc(S(=O)(=O)Nc2cc(Cl)c(Oc3c(Cl)cc(Cl)cc3Cl)c(Cl)c2)c1` yielded an IC50 in assay [1] of 380 nM.

In assay [1], `O=S(=O)(Nc1cc(Cl)c(Oc2ccc(Cl)cc2Cl)c(Cl)c1)c1ccccc1` had an IC50 of 1100 nM.

With `CC(C)CC(C)c1sccc1NC(=O)c1cn(C)nc1C(F)(F)F` (centres undefined) [PENTHIOPYRAD], the IC50 in assay [1] was found to be 1320 nM; in assay [4] it was 1190 nM. In assay [5], this compound gave an inhibition of less than 10%.

For `O=S(=O)(Nc1cc(Cl)c(Oc2c(Cl)cc(Cl)cc2Cl)c(Cl)c1)c1ccc(C(F)(F)F)cc1`, the 50% inhibitory concentration (IC50) in assay [1] was determined as 530 nM.

In the case of `O=S(=O)(Nc1cc(Cl)c(Oc2ccc3ccccc3c2)c(Cl)c1)c1ccccc1`, the inhibition in assay [2] amounted to 48%. The IC50 in assay [1] was greater than 10000 nM.

In assay [1], `O=S(=O)(Nc1cc(Cl)c(Oc2ccc(Cl)cc2Cl)c(Cl)c1)c1ccc(C(F)(F)F)cc1Cl` came in with an IC50 of 1170 nM.

`COc1ccc(S(=O)(=O)Nc2cc(Cl)c(Oc3c(Cl)cc(Cl)cc3Cl)c(Cl)c2)cc1` yielded a half-maximal inhibitory concentration (IC50) in assay [1] of 1870 nM.

As to `O=[N+]([O-])c1ccc(S(=O)(=O)Nc2ccc(Oc3ccc(Cl)cc3Cl)cc2)cc1`, the IC50 in assay [1] turned out to be 4860 nM.

Consider `O=S(=O)(Nc1ccc(Oc2ccc(Cl)cc2Cl)cc1)c1ccc(Cl)cc1Cl`, for which the IC50 in assay [1] was found to be 1620 nM. Compared with the last compound, the IC50 is about 3-fold lower.

In the case of `O=S(=O)(Nc1ccc(Oc2ccc(Cl)cc2Cl)c(Cl)c1)c1ccc(C(F)(F)F)cc1Cl`, inhibition in assay [1] was half-maximal at 1080 nM (IC50).

As to `O=S(=O)(Nc1ccc(Oc2ccc(Cl)cc2Cl)cc1)c1ccccc1`, the IC50 in assay [1] amounted to 9280 nM. Compared with the last compound, the IC50 is about 8.6-fold higher.

With `O=S(=O)(Nc1ccc(Oc2ccccc2)cc1)c1ccccc1`, the inhibition in assay [2] worked out at 32%. In assay [1], this compound returned an IC50 greater than 10000 nM.

For `O=S(=O)(Nc1cc(Cl)c(Oc2c(Cl)cc(Cl)cc2Cl)c(Cl)c1)c1ccc(Cl)cc1`, the IC50 in assay [1] was 630 nM.

Compound `CC(C)(C)c1ccc(S(=O)(=O)Nc2cc(Cl)c(Oc3c(Cl)cc(Cl)cc3Cl)c(Cl)c2)cc1` yielded an IC50 in assay [1] of 990 nM.

`CO/C=C(/C(=O)OC)c1ccccc1Oc1cc(Oc2ccccc2C#N)ncn1` [AZOXYSTROBIN]: the IC50 in assay [3] is 530 nM; in assay [1], 290 nM. The compound also gave an inhibition in assay [6] of 23%.

In turn, `O=[N+]([O-])c1ccc(S(=O)(=O)Nc2ccc(Oc3ccc(Cl)cc3Cl)c(Cl)c2)cc1` had an IC50 in assay [1] of 2240 nM.

`CN(C)S(=O)(=O)n1cnc(S(=O)(=O)Nc2cc(Cl)c(Oc3c(Cl)cc(Cl)cc3Cl)c(Cl)c2)n1`: the IC50 amounted to 35500 nM in assay [3], 3200 nM in assay [1] and 500 nM in assay [4].

In turn, `O=S(=O)(Nc1cc(Cl)c(Oc2ccc(Cl)cc2Cl)c(Cl)c1)c1c(Cl)cc(Cl)cc1Cl` showed an IC50 in assay [1] of 1120 nM.

Compound `O=S(=O)(Nc1cc(Cl)c(Oc2c(Cl)cc(Cl)cc2Cl)c(Cl)c1)c1ccc(Cl)cc1Cl` displayed an IC50 in assay [1] of 1030 nM.

In turn, `Cc1ccccc1S(=O)(=O)Nc1cc(Cl)c(Oc2c(Cl)cc(Cl)cc2Cl)c(Cl)c1` had a concentration for half-maximal inhibition (IC50) in assay [1] of 800 nM. This IC50 and that of the compound before are within 1.5-fold of each other.

For `O=[N+]([O-])c1ccc(S(=O)(=O)Nc2cc(Cl)c(Oc3c(Cl)cc(Cl)cc3Cl)c(Cl)c2)cc1`, in assay [1], the IC50 came out at 1580 nM. Compared with the last compound, the IC50 is about 2-fold higher.
